Measurements as given in ChEMBL document CHEMBL5291721, “A preclinical secondary pharmacology resource illuminates target-adverse drug reaction associations of marketed drugs” (Nat Commun, 2023).

Legend:
[1] = biological target: T1, Peroxisome proliferator-activated receptor gamma (Homo sapiens, UniProt P37231); format: functional
T1 sequence (P37231 whole entry): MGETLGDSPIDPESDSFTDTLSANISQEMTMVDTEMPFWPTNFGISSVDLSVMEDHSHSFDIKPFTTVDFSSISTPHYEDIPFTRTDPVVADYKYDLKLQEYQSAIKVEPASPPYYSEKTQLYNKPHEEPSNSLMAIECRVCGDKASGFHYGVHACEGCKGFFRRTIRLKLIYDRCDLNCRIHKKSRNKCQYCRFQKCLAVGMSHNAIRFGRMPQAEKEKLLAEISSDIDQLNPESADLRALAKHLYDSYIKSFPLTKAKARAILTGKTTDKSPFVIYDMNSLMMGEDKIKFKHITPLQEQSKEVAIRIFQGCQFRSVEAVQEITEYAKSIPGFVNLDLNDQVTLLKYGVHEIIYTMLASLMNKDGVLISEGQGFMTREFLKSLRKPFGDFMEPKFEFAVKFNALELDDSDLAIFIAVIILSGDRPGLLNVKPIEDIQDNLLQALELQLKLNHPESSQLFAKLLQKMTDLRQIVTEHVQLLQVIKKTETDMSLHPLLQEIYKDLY

[2] = biological target: Voltage-dependent L-type calcium channel subunit alpha-1C (Rattus norvegicus, UniProt P22002); format: functional
Chain of Voltage-dependent L-type calcium channel subunit alpha-1C (P22002 whole entry): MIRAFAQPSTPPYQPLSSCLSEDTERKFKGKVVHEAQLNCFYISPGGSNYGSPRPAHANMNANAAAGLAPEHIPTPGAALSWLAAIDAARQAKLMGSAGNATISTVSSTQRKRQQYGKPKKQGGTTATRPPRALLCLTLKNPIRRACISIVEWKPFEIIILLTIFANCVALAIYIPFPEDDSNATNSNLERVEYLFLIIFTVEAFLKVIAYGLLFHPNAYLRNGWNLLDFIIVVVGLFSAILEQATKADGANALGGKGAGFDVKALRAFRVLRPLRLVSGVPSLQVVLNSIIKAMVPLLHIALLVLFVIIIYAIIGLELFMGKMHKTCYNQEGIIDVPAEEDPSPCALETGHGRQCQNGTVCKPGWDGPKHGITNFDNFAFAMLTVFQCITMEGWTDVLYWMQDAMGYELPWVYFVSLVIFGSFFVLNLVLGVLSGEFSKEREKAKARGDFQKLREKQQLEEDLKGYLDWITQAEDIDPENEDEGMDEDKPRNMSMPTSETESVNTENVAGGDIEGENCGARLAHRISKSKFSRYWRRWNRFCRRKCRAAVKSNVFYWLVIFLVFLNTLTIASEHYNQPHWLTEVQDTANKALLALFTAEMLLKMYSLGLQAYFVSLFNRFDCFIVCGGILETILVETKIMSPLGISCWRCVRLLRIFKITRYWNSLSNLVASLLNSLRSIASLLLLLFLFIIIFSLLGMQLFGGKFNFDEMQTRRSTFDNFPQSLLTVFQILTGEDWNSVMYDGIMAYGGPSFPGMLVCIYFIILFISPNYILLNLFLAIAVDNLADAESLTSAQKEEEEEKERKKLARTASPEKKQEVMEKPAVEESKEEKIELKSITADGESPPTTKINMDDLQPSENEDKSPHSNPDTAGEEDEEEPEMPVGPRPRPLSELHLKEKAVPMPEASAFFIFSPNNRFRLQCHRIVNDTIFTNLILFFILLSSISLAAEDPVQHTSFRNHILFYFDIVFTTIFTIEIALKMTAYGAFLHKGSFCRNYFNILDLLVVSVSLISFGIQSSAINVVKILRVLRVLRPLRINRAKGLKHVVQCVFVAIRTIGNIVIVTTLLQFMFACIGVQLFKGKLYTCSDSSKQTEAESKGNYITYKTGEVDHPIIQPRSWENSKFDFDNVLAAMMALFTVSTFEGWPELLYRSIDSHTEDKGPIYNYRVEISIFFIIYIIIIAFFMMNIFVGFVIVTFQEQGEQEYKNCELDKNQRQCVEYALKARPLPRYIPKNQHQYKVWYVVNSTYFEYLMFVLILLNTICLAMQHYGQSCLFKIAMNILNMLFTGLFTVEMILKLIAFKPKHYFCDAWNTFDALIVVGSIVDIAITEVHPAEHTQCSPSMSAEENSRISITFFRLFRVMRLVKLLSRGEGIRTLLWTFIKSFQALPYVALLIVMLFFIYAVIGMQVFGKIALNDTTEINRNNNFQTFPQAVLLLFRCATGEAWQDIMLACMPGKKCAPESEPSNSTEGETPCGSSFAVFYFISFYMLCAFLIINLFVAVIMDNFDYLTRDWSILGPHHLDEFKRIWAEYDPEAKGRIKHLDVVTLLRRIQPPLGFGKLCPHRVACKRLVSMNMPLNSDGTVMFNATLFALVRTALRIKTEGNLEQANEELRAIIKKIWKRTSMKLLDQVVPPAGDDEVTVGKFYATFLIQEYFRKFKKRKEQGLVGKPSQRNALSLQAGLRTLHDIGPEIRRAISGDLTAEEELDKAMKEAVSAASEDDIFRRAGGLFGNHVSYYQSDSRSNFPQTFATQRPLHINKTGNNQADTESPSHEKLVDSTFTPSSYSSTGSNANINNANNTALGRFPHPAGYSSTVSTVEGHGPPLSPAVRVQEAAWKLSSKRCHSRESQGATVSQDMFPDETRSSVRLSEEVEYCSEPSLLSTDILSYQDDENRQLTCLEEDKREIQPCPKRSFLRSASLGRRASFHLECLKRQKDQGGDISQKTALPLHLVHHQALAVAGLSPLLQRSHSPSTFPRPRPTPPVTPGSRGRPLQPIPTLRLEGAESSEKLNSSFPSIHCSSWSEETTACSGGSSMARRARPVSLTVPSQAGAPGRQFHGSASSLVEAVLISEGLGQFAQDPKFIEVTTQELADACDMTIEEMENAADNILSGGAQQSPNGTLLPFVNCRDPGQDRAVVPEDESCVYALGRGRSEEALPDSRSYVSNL

[3] = biological target: T2, Adenosine receptor A1 (Homo sapiens, UniProt P30542)
T2 sequence (P30542 whole entry): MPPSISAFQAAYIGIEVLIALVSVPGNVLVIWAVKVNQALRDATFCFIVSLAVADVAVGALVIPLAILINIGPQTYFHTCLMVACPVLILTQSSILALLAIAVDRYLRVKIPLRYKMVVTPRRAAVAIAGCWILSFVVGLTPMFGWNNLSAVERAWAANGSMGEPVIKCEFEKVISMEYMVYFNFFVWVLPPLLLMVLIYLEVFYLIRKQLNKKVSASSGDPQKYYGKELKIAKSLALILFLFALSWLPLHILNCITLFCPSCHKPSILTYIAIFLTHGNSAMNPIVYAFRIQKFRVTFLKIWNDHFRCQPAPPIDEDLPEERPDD

[4] = biological target: T3, Gastric inhibitory polypeptide receptor (Homo sapiens, UniProt P48546)
T3 sequence (P48546 whole entry): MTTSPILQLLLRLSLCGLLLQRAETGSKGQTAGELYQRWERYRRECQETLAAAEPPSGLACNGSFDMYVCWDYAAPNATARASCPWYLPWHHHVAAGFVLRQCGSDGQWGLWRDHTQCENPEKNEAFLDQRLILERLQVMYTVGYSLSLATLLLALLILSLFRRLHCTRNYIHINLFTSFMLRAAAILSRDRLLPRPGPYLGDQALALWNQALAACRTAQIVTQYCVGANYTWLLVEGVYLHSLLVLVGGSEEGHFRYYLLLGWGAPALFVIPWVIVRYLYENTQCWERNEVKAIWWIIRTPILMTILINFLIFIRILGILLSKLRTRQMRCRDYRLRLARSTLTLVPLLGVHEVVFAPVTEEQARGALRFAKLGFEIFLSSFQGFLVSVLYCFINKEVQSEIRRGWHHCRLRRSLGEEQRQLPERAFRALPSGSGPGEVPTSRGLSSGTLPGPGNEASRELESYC

[5] = biological target: T4, B1 bradykinin receptor (Homo sapiens, UniProt P46663)
T4 sequence (P46663 whole entry): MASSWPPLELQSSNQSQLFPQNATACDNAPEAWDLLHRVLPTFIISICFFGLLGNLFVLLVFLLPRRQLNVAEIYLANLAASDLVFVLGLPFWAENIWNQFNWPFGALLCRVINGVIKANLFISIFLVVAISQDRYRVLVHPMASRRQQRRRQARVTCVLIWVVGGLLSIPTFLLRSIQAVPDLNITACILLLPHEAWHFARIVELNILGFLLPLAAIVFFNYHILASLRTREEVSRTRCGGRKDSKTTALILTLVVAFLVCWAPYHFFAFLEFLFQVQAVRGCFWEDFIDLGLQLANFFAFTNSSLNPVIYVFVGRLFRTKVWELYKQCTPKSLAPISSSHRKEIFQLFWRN

[6] = biological target: T5, Progesterone receptor (Homo sapiens, UniProt P06401)
T5 sequence (P06401 whole entry): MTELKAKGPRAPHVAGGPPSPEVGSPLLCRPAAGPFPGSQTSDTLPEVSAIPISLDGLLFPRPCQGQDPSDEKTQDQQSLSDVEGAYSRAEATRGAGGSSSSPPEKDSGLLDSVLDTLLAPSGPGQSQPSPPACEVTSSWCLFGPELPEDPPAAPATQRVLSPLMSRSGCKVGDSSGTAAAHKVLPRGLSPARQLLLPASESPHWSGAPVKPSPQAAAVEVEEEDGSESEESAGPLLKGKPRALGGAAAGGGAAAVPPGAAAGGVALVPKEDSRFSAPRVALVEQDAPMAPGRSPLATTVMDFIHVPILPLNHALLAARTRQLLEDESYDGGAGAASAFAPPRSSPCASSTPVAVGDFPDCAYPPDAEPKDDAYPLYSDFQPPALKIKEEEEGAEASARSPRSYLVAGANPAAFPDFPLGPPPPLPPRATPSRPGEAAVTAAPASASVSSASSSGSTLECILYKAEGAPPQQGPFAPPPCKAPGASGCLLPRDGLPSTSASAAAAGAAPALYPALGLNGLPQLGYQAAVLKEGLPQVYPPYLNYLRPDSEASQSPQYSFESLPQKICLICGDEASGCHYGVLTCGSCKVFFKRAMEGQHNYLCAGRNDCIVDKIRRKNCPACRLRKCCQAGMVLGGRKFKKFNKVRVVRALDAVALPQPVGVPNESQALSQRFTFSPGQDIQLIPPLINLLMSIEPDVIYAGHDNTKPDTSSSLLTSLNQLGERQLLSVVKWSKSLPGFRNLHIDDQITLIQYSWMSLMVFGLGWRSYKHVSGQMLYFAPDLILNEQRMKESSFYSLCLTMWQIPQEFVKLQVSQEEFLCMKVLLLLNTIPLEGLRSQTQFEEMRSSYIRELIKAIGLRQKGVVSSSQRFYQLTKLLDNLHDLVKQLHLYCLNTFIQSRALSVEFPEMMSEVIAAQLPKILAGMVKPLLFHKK

[7] = biological target: Histamine H2 receptor (Homo sapiens, UniProt P25021)
Chain of Histamine H2 receptor (P25021 whole entry): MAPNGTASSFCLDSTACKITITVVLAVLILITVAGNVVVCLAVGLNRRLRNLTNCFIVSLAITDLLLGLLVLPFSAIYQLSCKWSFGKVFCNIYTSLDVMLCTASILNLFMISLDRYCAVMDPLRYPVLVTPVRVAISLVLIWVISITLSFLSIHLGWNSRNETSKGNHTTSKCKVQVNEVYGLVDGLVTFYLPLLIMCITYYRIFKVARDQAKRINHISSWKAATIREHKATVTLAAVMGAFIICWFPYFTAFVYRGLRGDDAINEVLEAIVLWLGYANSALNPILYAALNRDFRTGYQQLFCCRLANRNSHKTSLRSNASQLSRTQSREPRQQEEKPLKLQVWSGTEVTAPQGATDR
Also: assay procedure not described here.

CCOc1cc([C@@H](CS(C)(=O)=O)N2C(=O)c3cccc(NC(C)=O)c3C2=O)ccc1OC
AC50 [1]: > 30 µM

CC(=O)Nc1ccc(CC(=O)O)cc1 [ACTARIT]
AC50 [2]: > 30 µM

CC(C(=O)O)c1ccc2oc(-c3ccc(Cl)cc3)nc2c1 (configuration not stated) [BENOXAPROFEN]
AC50 [2]: > 30 µM

Nc1c(CC(=O)O)cccc1C(=O)c1ccc(Br)cc1 [BROMFENAC]
AC50 [3]: 23.6 µM

CC1(C)S[C@@H]2[C@H](NC(=O)C(C(=O)O)c3ccccc3)C(=O)N2[C@H]1C(=O)O (some centres not stated) [CARBENICILLIN]
AC50 [1]: > 30 µM

Cc1nnc(SCC2=C(C(=O)O)N3C(=O)[C@@H](NC(=O)Cn4cnnn4)[C@H]3SC2)s1 [CEFAZOLIN]
AC50 [1]: > 300 µM

CC=CC1=C(C(=O)O)N2C(=O)[C@@H](NC(=O)[C@H](N)c3ccc(O)cc3)[C@H]2SC1 [CEFPROZIL]
AC50 [2]: > 30 µM

CC(C)(O/N=C(\C(=O)N[C@@H]1C(=O)N2C(C(=O)[O-])=C(C[n+]3ccccc3)CS[C@H]12)c1csc(N)n1)C(=O)O [CEFTAZIDIME]
AC50 [1]: > 300 µM

CC(C)NC(=N)NC(=N)Nc1ccc(Cl)c(Cl)c1 [CHLORPROGUANIL]
AC50 [3]: > 30 µM

CCCNC(=O)NS(=O)(=O)c1ccc(Cl)cc1 [CHLORPROPAMIDE]
AC50 [4]: > 30 µM | AC50 [2]: > 10 µM | AC50 [5]: > 30 µM | AC50 [6]: > 30 µM

C[N+](C)(C)CCOP(=O)(O)OP(=O)([O-])OC[C@H]1O[C@@H](n2ccc(N)nc2=O)[C@H](O)[C@@H]1O [CITICOLINE]
AC50 [3]: > 30 µM

Clc1ccc(Cn2c(CN3CCCC3)nc3ccccc32)cc1 [CLEMIZOLE]
AC50 [1]: > 30 µM

CCC(=O)O[C@]1(C(=O)CCl)[C@@H](C)C[C@H]2[C@@H]3CCC4=CC(=O)C=C[C@]4(C)[C@@]3(F)[C@@H](O)C[C@@]21C [CLOBETASOL PROPIONATE]
AC50 [1]: > 30 µM

Cc1nc(Nc2ncc(C(=O)Nc3c(C)cccc3Cl)s2)cc(N2CCN(CCO)CC2)n1 [DASATINIB]
AC50 [7]: > 10 µM | AC50 [2]: > 10 µM | AC50 [5]: > 10 µM | AC50 [6]: > 30 µM

O=C(O)Cc1ccccc1Nc1c(Cl)cccc1Cl [DICLOFENAC]
AC50 [4]: > 30 µM | AC50 [7]: > 10 µM | AC50 [2]: > 10 µM | AC50 [5]: > 30 µM | AC50 [6]: > 30 µM

CN[C@@H]1[C@H](O[C@H]2[C@H](O[C@H]3[C@H](O)[C@@H](O)[C@H](NC(=N)N)[C@@H](O)[C@@H]3NC(=N)N)O[C@@H](C)[C@]2(O)CO)O[C@@H](CO)[C@H](O)[C@H]1O [DIHYDROSTREPTOMYCIN]
AC50 [3]: > 30 µM

CC[C@H]1OC(=O)[C@H](C)[C@@H](O[C@H]2C[C@@](C)(OC)[C@@H](O)[C@H](C)O2)[C@H](C)[C@@H](O[C@@H]2O[C@H](C)C[C@H](N(C)C)[C@H]2O)[C@](C)(O)C[C@@H](C)[C@@H]2N[C@@H](COCCOC)O[C@H]([C@H]2C)[C@]1(C)O [DIRITHROMYCIN]
AC50 [3]: > 30 µM

CNC[C@H](O)c1ccc(O)c(O)c1 [EPINEPHRINE]
AC50 [1]: > 30 µM

O=C(O)Cc1ccccc1Oc1ccc(Cl)cc1Cl [FENCLOFENAC]
AC50 [4]: > 30 µM | AC50 [7]: > 10 µM | AC50 [2]: > 10 µM | AC50 [5]: > 30 µM | AC50 [6]: > 30 µM

Cc1onc(-c2c(F)cccc2Cl)c1C(=O)N[C@@H]1C(=O)N2[C@@H]1SC(C)(C)[C@@H]2C(=O)O [FLOXACILLIN]
AC50 [1]: > 30 µM

Cc1ccc(C)c(OCCCC(C)(C)C(=O)O)c1 [GEMFIBROZIL]
AC50 [4]: > 30 µM | AC50 [7]: > 10 µM | AC50 [2]: > 10 µM | AC50 [5]: > 30 µM | AC50 [6]: > 30 µM

C#C[C@]1(O)C=C[C@H]2[C@@H]3CCC4=CC(=O)CC[C@@H]4[C@H]3CC[C@@]21CC [GESTODENE]
AC50 [3]: > 30 µM

COc1ccccc1OC1(C)OC(=O)c2ccccc2O1 (configuration not stated) [GUAIMESAL]
AC50 [3]: > 30 µM

C[N+](C)(CCCCCC[N+](C)(C)C1c2ccccc2-c2ccccc21)C1c2ccccc2-c2ccccc21 [HEXAFLUORENIUM]
AC50 [3]: > 30 µM

CCCCCCCN(CC)CCCC(O)c1ccc(NS(C)(=O)=O)cc1 (configuration not stated) [IBUTILIDE]
AC50 [2]: > 30 µM

CC[C@H](C)C(=O)O[C@H]1C[C@@H](C)C=C2C=C[C@H](C)[C@H](CC[C@@H]3C[C@@H](O)CC(=O)O3)[C@H]21 [LOVASTATIN]
AC50 [4]: > 30 µM | AC50 [7]: > 10 µM | AC50 [2]: > 10 µM | AC50 [5]: > 30 µM | AC50 [6]: 29.7 µM

CC[C@@H](CO)NC(=O)[C@@H]1C=C2c3cccc4c3c(cn4C)C[C@H]2N(C)C1 [METHYSERGIDE]
AC50 [4]: > 30 µM | AC50 [7]: 2.44 µM | AC50 [2]: > 10 µM | AC50 [5]: > 30 µM | AC50 [6]: 16 µM

CNC(=C[N+](=O)[O-])NCCSCc1csc(CN(C)C)n1 [NIZATIDINE]
AC50 [2]: > 10 µM

CC(CN1c2ccccc2Sc2ccccc21)N(C)C (configuration not stated) [PROMETHAZINE]
AC50 [4]: > 30 µM | AC50 [7]: 0.0536 µM | AC50 [3]: > 30 µM | AC50 [2]: > 10 µM | AC50 [5]: > 30 µM | AC50 [6]: > 30 µM

CCCc1cc(=O)[nH]c(=S)[nH]1 [PROPYLTHIOURACIL]
AC50 [2]: > 10 µM

Cn1cc(C(=O)[C@@H]2CCc3nc[nH]c3C2)c2ccccc21 [RAMOSETRON]
AC50 [2]: > 30 µM

CN(CCOc1ccc(CC2SC(=O)NC2=O)cc1)c1ccccn1 (configuration not stated) [ROSIGLITAZONE]
AC50 [4]: > 30 µM | AC50 [7]: > 10 µM | AC50 [2]: > 30 µM | AC50 [5]: > 30 µM | AC50 [6]: > 30 µM

S=P(N1CC1)(N1CC1)N1CC1 [THIOTEPA]
AC50 [1]: > 30 µM

CC(C)C[C@H](NC(=O)[C@@H](O)[C@H](N)Cc1ccccc1)C(=O)O [UBENIMEX]
AC50 [3]: > 30 µM | AC50 [2]: > 30 µM

CC(C)[C@H](N)C(=O)OCCOCn1cnc2c(=O)[nH]c(N)nc21 [VALACYCLOVIR]
AC50 [4]: > 30 µM | AC50 [7]: > 10 µM | AC50 [2]: > 10 µM | AC50 [5]: > 30 µM | AC50 [6]: > 30 µM

COc1cc(C(=O)NS(=O)(=O)c2ccccc2C)ccc1Cc1cn(C)c2ccc(NC(=O)OC3CCCC3)cc12 [ZAFIRLUKAST]
AC50 [2]: > 10 µM

O=C1Cc2cc(CCN3CCN(c4nsc5ccccc45)CC3)c(Cl)cc2N1 [ZIPRASIDONE]
AC50 [4]: > 30 µM | AC50 [7]: 0.596 µM | AC50 [3]: > 30 µM | AC50 [2]: > 10 µM | AC50 [5]: > 30 µM | AC50 [6]: 21.8 µM
